# Assay results published in patent US20110184147A1, “ENZYME SUBSTRATE FOR LABELING OF PROTEIN” (priority 2008, published 2011).
# Key:
# MTG [1] = molecular target: T1, MTG (Streptomyces mobaraensis, UniProt P81453); experiment: MTG-catalyzed binding reaction of fluorescent substrate with β-casein; type: biochemical, microbial; details: substrate 1 mM, β-casein 0.5 mg/ml, MTG 1 U/ml, phosphate buffer pH 7, overnight 27° C.
# T1 construct: purchased AJINOMOTO (supplied as a gift)
# Protocol: (§1) To perform a binding reaction, FITC-β-Ala-QG, β-casein and GTG were added to 50 mM HEPES (5 mM NaCl, 10 mM CaCl2, pH 7.4) to give respective final concentrations of 1 mM, 0.5 mg/ml and 0.2 U/ml and the resulting mixture was left to stand overnight at 27° C. Two comparative samples were prepared; one was a GTG-free sample and the other was prepared by performing an MTG-catalyzed reaction. For the MTG-catalyzed binding reaction, FITC-β-Ala-QG, β-casein and MTG were added to a 10 mM phosphate buffer (pH 7) to give respective final concentrations of 1 mM, 0.5 mg/ml and 1 U/ml and the resulting mixture was left to stand overnight at 27° C. Tracing on the sample after the reaction was performed by the same procedure as in Experiment 2-2.
# GTG = molecular target: T2, GTG (UniProt P08587); experiment: Reactivity of GTG for fluorescent substrate (crosslinking with β-casein); type: biochemical, guinea pig; details: substrate 1 mM, β-casein 0.5 mg/ml, GTG 0.2 U/ml, 50 mM HEPES pH 7.4, overnight 27° C.
# T2 construct: purchased
# T2 sequence (P08587 1-690): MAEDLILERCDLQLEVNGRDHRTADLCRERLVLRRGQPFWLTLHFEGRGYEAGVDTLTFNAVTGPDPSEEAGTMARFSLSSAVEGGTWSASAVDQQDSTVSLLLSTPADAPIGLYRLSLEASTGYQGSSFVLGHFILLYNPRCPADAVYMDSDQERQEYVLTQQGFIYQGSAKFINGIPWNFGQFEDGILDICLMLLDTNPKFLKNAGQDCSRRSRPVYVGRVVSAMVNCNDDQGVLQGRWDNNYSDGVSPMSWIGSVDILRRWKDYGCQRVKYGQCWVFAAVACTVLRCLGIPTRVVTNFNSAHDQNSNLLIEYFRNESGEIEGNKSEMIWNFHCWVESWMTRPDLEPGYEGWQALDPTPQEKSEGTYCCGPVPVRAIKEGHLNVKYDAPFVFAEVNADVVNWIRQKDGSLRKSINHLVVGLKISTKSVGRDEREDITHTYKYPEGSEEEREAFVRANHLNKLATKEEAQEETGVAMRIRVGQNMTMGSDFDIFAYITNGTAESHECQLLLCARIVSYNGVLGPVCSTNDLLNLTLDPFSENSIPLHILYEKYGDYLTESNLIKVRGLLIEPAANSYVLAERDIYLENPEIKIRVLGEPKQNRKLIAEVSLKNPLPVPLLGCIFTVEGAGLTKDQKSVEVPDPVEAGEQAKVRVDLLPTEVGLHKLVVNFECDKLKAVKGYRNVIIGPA
# Protocol: In the experiment, β-casein was used as a protein having a TGase-recognizable Lys and a reaction for crosslinking with a fluorescent substrate was performed to evaluate its reactivity for GTG.
# as §1
# MTG [2] = molecular target: T1, MTG; experiment: MTG-catalyzed introduction of fluorescent substrate into anti-PSA IgG antibody (optimization, substrate comparison); type: biochemical, microbial
# Protocol: To a 50 mM buffer whose pH was varied over the range from 5 to 9 (pH 5 acetate buffer; pH 6-7 phosphate buffer; pH 8 Tris-HCl; pH 9 boric acid buffer), FITC-β-Ala-QG, an anti-PSA (prostate specific antigen) IgG antibody (mouse-derived, monoclonal) and MTG were added to give respective final concentrations of 0.1 mM, 0.5 mg/ml, and 1 U/ml. These ingredients were well stirred and left to stand at 4° C. for reaction. After 1-hr or 6-hr reaction, the sample was mixed with a sample buffer and heated at 95° C. for 15 minutes to stop the reaction. Thereafter, SDS-polyacrylamide gel electrophoresis (SDS-PAGE) was applied. The gel from SDS-PAGE was stained with Coomassie Brilliant Blue (CBB) and observed with a fluorescent imager.
# (§2) To 50 mM Tris-HCl (pH 8), FITC-β-Ala-QG, an anti-PSA IgG antibody and MTG were added to give respective final concentrations of 1 mM, 0.5 mg/ml, and 0.001-1 U/ml. These ingredients were well stirred and left to stand at 4° C. for reaction. The reaction was stopped and evaluation was made by the same procedures as in Experiment 2-1.
# as §2, with “of 0.001-1” for “of 1”, “and 1” for “and 0.001-1”
# To PBS, FITC-β-Ala-QG, an anti-PSA IgG antibody (mouse-derived, monoclonal) and MTG were added to give respective final concentrations of 1 mM, 0.5 mg/ml, and 1 U/ml. These ingredients were well stirred and left to stand at 4° C. or 40° C. for reaction. After 3-, 6- and 18-hr reactions, the reaction was stopped and evaluation was made by the same procedures as in Experiment 2-1.
# To PBS, FITC-β-Ala-QG, an anti-PSA IgG antibody (mouse-derived, monoclonal) and MTG were added to give respective final concentrations of 1 mM, 0.5 mg/ml, and 1 U/ml. These ingredients were well stirred and left to stand for 18 hours at 4° C. for reaction. For the purpose of comparison, two additional samples were prepared, one being free of FITC-β-Ala-QG-biotin and the other having been reacted with a biotin-free fluorescent substrate (FITC-β-Ala-QG). After the reaction, the samples were purified by ultrafiltration (product of MILLIPORE Corp.; 100 kDa cut).
# T1 sequence (P81453 77-407): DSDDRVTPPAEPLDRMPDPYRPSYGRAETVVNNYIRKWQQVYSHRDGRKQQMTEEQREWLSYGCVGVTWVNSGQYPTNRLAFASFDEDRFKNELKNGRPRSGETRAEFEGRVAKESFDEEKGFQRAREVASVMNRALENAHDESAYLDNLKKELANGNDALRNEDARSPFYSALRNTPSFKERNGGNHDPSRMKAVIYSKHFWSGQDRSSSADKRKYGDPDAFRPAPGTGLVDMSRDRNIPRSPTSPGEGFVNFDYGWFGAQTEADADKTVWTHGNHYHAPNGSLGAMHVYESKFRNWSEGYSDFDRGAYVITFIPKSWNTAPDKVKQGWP
compound,measurement,setting,value
NC(=O)CCC(NC(=O)CCNC(=S)Nc1ccc(-c2c3ccc(=O)cc-3oc3cc(O)ccc23)c(C(=O)O)c1)C(=O)NCC(=O)O (stereo not drawn) [FITC-β-Ala-QG],Fluorescence intensity of MTG lane compared with GTG lane,MTG [1],higher fluorescence intensity
same,Reactivity of fluorescent substrate for GTG,GTG,also recognized by MTG
same,pH of highly efficient introduction into antibody,"MTG [2]; anti-PSA IgG antibody, substrate 0.1 mM, MTG 1 U/ml, 4° C., 1 and 6 hours",~7
same,Substrate concentration dependency of antibody labeling,"MTG [2]; anti-PSA IgG antibody, substrate 0.001-1 mM, MTG 1 U/ml, pH 8, 4° C.",proceeded with the increasing substrate concentration
same,MTG concentration at which a highly efficient reaction proceeded,"MTG [2]; anti-PSA IgG antibody, substrate 1 mM, pH 8, 4° C., MTG 0.001-1 U/ml",1 U
same,Introduction into the antibody,MTG [2]; before the addition of the resin (lanes 1-3),verified the introduction
